Columns and labels:
Type in all cases: cell-based
[1] = tested on: C-myc transcription (cMYC RNA synthesis); assay: QPCR control assay of C-myc transcription; details: IC50 pertaining to cMYC RNA synthesis
Method: A control assay that detected effects of the compounds on C-myc transcription also was conducted using a primer/probe set purchased from ABI (TaqMan Gene Expression Assay with assay ID: Hs99999003_m1). The following assay protocol was utilized:
(§1) Step 1. Reverse transcription of RNA to DNA
(§2) Fluorescence of digested label was detected and quantified. The effect of the compounds on rRNA synthesis were assessed in the assay, and provided in the table hereafter are IC50 values of selected compounds pertaining to rRNA synthesis and cMYC RNA synthesis.

[2] = tested on: MiaPaca human pancreatic carcinoma cells; assay: Alamar Blue cell proliferation assay, MiaPaCa; details: MIA PaCa-2, 96 h, anti-proliferative effect, about four days with compound, read-out: AB: MiaPaCa
Method: (§3) A representative cell-proliferation assay protocol using Alamar Blue dye (stored at 4° C., use 20 ul per well) is described hereafter.
(§4) a. Split and trypsinize cells.
(§5) b. Count cells using hemocytometer.
(§6) c. Plate 4,000-5,000 cells per well in 100 μl of medium and seed into a 96-well plate according to the following plate layout. Add cell culture medium only to wells B10 to B12. Wells B1 to B9 have cells but no compound added.
(§7) d. Add 100 μl of 2× drug dilution to each well in a concentration shown in the plate layout above. At the same time, add 100 μl of media into the control wells (wells B10 to B12). Total volume is 200 μl /well.
(§8) e. Incubate four (4) days at 37° C., 5% CO2 in a humidified incubator.
(§9) f. Add 20 μl Alamar Blue reagent to each well.
(§10) g. Incubate for four (4) hours at 37° C., 5% CO2 in a humidified incubator.
(§11) h. Record fluorescence at an excitation wavelength of 544 nm and emission wavelength of 590 nm using a microplate reader.
(§12) In the assays, cells are cultured with a test compound for approximately four days, the dye then is added to the cells and fluorescence of […] dye is detected after approximately four hours. Different types of cells can be utilized in the assays (e.g., HCT-116 human colorectal carcinoma cells, PC-3 human prostatic cancer cells and MiaPaca human pancreatic carcinoma cells). Anti-proliferative effects of representative compounds are provided in the Table below (i.e., “AB: HCT-116” and “AB: MiaPaCa” columns).

[3] = tested on: HCT-116 human colorectal carcinoma cells; assay: Alamar Blue cell proliferation assay, HCT-116; details: 96 h, anti-proliferative effect, about four days with compound, HCT-116 cells, read-out: AB: HCT-116
Method: as §3, §4, §5, §6, §7, §8, §9, §10, §11, §12

[4] = tested on: rRNA synthesis from 45S rDNA; assay: QPCR assay of rRNA synthesis; details: IC50 pertaining to rRNA synthesis, PCR with 5' ETS probe
Method: A representative assay for determining whether a compound modulates rRNA production is set forth hereafter. Assays were conducted to determine the effects of compounds on rRNA synthesis from 45S rDNA. Synthesized rRNA was quantified by a polymerase chain reaction (PCR) assay. A primer/probe set was designed using Primer Express software and synthesized by Applied Biosystems. The 5′ ETS Probe utilized had the following sequence (at its 3′ end): 6FAM-TTG ATC CTG CCA GTA GC-MGBNFQ. The primer sequences were as follows:
as §1, §2

## CN(C)NC(=O)c1c(=O)c2ccc(N3CCOCC3)nc2n2c1sc1ccccc12 [Cmpd 10]
[1]
  IC50: 8990 nM
[2]
  IC50: 444 nM
[3]
  IC50: 523 nM
[4]
  IC50: 414 nM

## O=C(NNC1=NCCN1)c1c(=O)c2cc(F)c(N3CCOCC3)nc2n2c1sc1ccccc12 [Cmpd 17]
[1]
  IC50: 1100 nM
[2]
  IC50: 3 nM
[3]
  IC50: 1 nM
[4]
  IC50: 38 nM

## COc1ccc(CNc2ccc3c(=O)c(C(=O)NN4CCN(C)CC4)c4sc5ccccc5n4c3n2)cc1 [Cmpd 18]
[2]
  IC50: 893 nM
[3]
  IC50: 985 nM
[4]
  IC50: 1290 nM

## CN(C)NC(=O)c1c(=O)c2cc(F)c(N3CCOCC3)nc2n2c3ccccc3n(C)c12 [Cmpd 22]
[2]
  IC50: 2190 nM
[3]
  IC50: 1410 nM

## CN1CCN(NC(=O)c2c(=O)c3ccc(-c4ccc(CO)cc4)nc3n3c2sc2ccccc23)CC1 [Cmpd 20]
[2]
  IC50: ≥ 50000 nM
[3]
  IC50: 7140 nM
[4]
  IC50: 9710 nM

## Cn1c2ccccc2n2c3nc(N4CCOCC4)c(F)cc3c(=O)c(C(=O)NN3CCOCC3)c12 [Cmpd 21]
[2]
  IC50: 1300 nM
[3]
  IC50: 662 nM

## CN1CCN(NC(=O)c2c(=O)c3ccc(N4CCCCC4)nc3n3c2sc2ccccc23)CC1 [Cmpd 11]
[2]
  IC50: 740 nM
[3]
  IC50: 915 nM
[4]
  IC50: 3140 nM

## CN1CCN(NC(=O)c2c(=O)c3ccc(N4CCC(O)C4)nc3n3c2sc2ccccc23)CC1 (stereo not drawn) [Cmpd 13]
[2]
  IC50: 3310 nM
[3]
  IC50: 5880 nM
[4]
  IC50: 7320 nM

## O=C(NNc1ccccn1)c1c(=O)c2cc(F)c(N3CCOCC3)nc2n2c1sc1ccccc12 [Cmpd 15]
[2]
  IC50: 5360 nM
[3]
  IC50: 1310 nM
[4]
  IC50: 5550 nM

## CN1CCN(NC(=O)c2c(=O)c3ccc(N(C)Cc4cnccn4)nc3n3c2sc2ccccc23)CC1 [Cmpd 2]
[2]
  IC50: 1480 nM
[3]
  IC50: 249 nM
[4]
  IC50: 696 nM

## CN1CCN(NC(=O)c2c(=O)c3ccc(N4CCOCC4)nc3n3c2sc2ccccc23)CC1 [Cmpd 1]
[1]
  IC50: 1190 nM
[3]
  IC50: 96 nM
[4]
  IC50: 148 nM

## CN(C)NC(=O)c1c(=O)c2ccc(N3CCOCC3)nc2n2c1[nH]c1ccccc12 [Cmpd 23]
[3]
  IC50: 1640 nM

## CN1CCN(NC(=O)c2c(=O)c3cc(F)c(N(C)Cc4cnccn4)nc3n3c2sc2ccccc23)CC1 [Cmpd 4]
[1]
  IC50: 7010 nM
[2]
  IC50: 173 nM
[3]
  IC50: 517 nM
[4]
  IC50: 291 nM

## CN1CCN(NC(=O)c2c(=O)c3ccc(NCCF)nc3n3c2sc2ccccc23)CC1 [Cmpd 12]
[2]
  IC50: 1030 nM
[3]
  IC50: 693 nM
[4]
  IC50: 1580 nM

## CN1CCN(NC(=O)c2c(=O)c3cc(F)c(N4CCOCC4)nc3n3c2sc2ccccc23)CC1 [Cmpd 3]
[1]
  IC50: 6060 nM
[2]
  IC50: 225 nM
[3]
  IC50: 265 nM
[4]
  IC50: 102 nM

## CN1CCN(NC(=O)c2c(=O)c3ccc(N4CCOCC4)nc3n3c2[nH]c2ccccc23)CC1 [Cmpd 24]
[3]
  IC50: 1420 nM

## O=C(NN1CCOCC1)c1c(=O)c2ccc(N3CCOCC3)nc2n2c1sc1ccccc12 [Cmpd 6]
[2]
  IC50: 549 nM
[3]
  IC50: 562 nM
[4]
  IC50: 702 nM

## O=C(Nn1cnnc1)c1c(=O)c2cc(F)c(N3CCOCC3)nc2n2c1sc1ccccc12 [Cmpd 16]
[1]
  IC50: 14000 nM
[2]
  IC50: 715 nM
[3]
  IC50: 292 nM
[4]
  IC50: 350 nM

## CN1CCN(NC(=O)c2c(=O)c3cc(F)c(NN4CCN(C)CC4)nc3n3c2sc2ccccc23)CC1 [Cmpd 5]
[2]
  IC50: 486 nM
[3]
  IC50: 1750 nM
[4]
  IC50: 632 nM

## O=C(NN1CCOCC1)c1c(=O)c2cc(F)c(N3CCOCC3)nc2n2c1sc1ccccc12 [Cmpd 14]
[2]
  IC50: 8090 nM
[3]
  IC50: 690 nM
[4]
  IC50: 2240 nM

## COC[C@H]1CCCN1NC(=O)c1c(=O)c2ccc(N3CCOCC3)nc2n2c1sc1ccccc12 [Cmpd 9]
[2]
  IC50: 596 nM
[3]
  IC50: 1170 nM
[4]
  IC50: 720 nM

## O=C(NN1CCCC1)c1c(=O)c2ccc(N3CCOCC3)nc2n2c1sc1ccccc12 [Cmpd 7]
[2]
  IC50: 955 nM
[3]
  IC50: 653 nM
[4]
  IC50: 714 nM

## O=C(NN1CCCCC1)c1c(=O)c2ccc(N3CCOCC3)nc2n2c1sc1ccccc12 [Cmpd 8]
[1]
  IC50: 23600 nM
[2]
  IC50: ≥ 50000 nM
[3]
  IC50: ≥ 50000 nM
[4]
  IC50: 458 nM

— patent US20110065687A1, “HYDRAZIDE COMPOUNDS AND USES THEREOF” (priority 2007, published 2011)
